Results from patent US20220289794A1, “SYNTHETIC ANTIMICROBIAL PEPTIDES” (priority 2019, published 2022).
≈ marks a conversion by molar mass, not a printed value. Non-standard residues stand in square brackets, D forms with d. Residues, ends and D or L forms follow the SMILES beside them. Trp(6-Cl) = N[C@@H](Cc1c[nH]c2cc(Cl)ccc12)C(=O)O; Dip = N[C@H](C(=O)O)C(c1ccccc1)c1ccccc1; 2Nal = N[C@@H](Cc1ccc2ccccc2c1)C(=O)O; d2Nal = N[C@H](Cc1ccc2ccccc2c1)C(=O)O; Dab = NCC[C@H](N)C(=O)O

What was measured:
[1] = system: Methicillin-resistant Staphylococcus aureus MRSA (ATCC BAA-1556); conditions: ATCC BAA-1556
[2] = system: S. aureus ATCC 29213; conditions: ATCC 29213
[3] = system: Pseudomonas aeruginosa (ATCC 27883); conditions: ATCC 27883
[4] = system: Escherichia coli (ATCC 25922); conditions: ATCC 25922
[5] = system: human red blood cells; design: unit not given beside the values

Row | Structure (SMILES) | MIC MRSA ATCC BAA-1556 [1] [µg/mL] | MIC S. aureus ATCC 29213 [2] [µg/mL] | MIC P. aeruginosa ATCC 27883 [3] [µg/mL] | MIC E. coli ATCC 25922 [4] [µg/mL] | HC50 [5]
1 | N=C(N)NCCC[C@@H]1NC(=O)[C@H](CCCNC(=N)N)NC(=O)[C@H](CCCNC(=N)N)NC(=O)[C@H](Cc2c[nH]c3cc(Cl)ccc23)NC(=O)[C@H](Cc2c[nH]c3cc(Cl)ccc23)NC(=O)[C@H](Cc2c[nH]c3cc(Cl)ccc23)NC(=O)[C@H](Cc2c[nH]c3cc(Cl)ccc23)NC(=O)[C@H](CCCNC(=N)N)NC1=O [IFX-040, c[Arg-Arg-Arg-Arg-6clW-6clW-6clW-6clW]] (cyclo(RRRR[Trp(6-Cl)][Trp(6-Cl)][Trp(6-Cl)][Trp(6-Cl)])) | 3.1 (≈ 2.06 µM) | 3.1 (≈ 2.06 µM) | 100 (≈ 66.3 µM) | 100 (≈ 66.3 µM) | 490
2 | N=C(N)NCCC[C@H](NC(=O)[C@H](CCCNC(=N)N)NC(=O)[C@@H](N)CCCNC(=N)N)C(=O)N[C@@H](CCCNC(=N)N)C(=O)N[C@H](C(=O)N[C@@H](Cc1c[nH]c2ccccc12)C(=O)N[C@H](C(=O)O)C(c1ccccc1)c1ccccc1)C(c1ccccc1)c1ccccc1 [IFX-027-1, NH2-R-R-R-R-Dip-Trp-Dip-OH] (H-RRRR[Dip]W[Dip]-OH) | 3.1 (≈ 2.43 µM) | 3.1 (≈ 2.43 µM) | 25 (≈ 19.6 µM) | 12.5 (≈ 9.8 µM) | 910
3 | N=C(N)NCCC[C@H](NC(=O)[C@@H](NC(=O)[C@@H](NC(=O)[C@H](CCCNC(=N)N)NC(=O)[C@H](CCCNC(=N)N)NC(=O)[C@@H](NC(=O)[C@@H](N)CCCNC(=N)N)C(c1ccccc1)c1ccccc1)C(c1ccccc1)c1ccccc1)C(c1ccccc1)c1ccccc1)C(=O)O [IFX-016-1, NH2-Arg-Dip-Arg-Arg-Dip-Dip-Arg-OH] (H-R[Dip]RR[Dip][Dip]R-OH) | 25 (≈ 19 µM) | 12.5 (≈ 9.52 µM) | >100 | 25 (≈ 19 µM) | 320
4 | C[C@@H]1NC(=O)[C@H](C)NC(=O)[C@H](CCCNC(=N)N)NC(=O)[C@H](CCCNC(=N)N)NC(=O)[C@H](CCCNC(=N)N)NC(=O)[C@H](CCCNC(=N)N)NC(=O)[C@H](C)NC(=O)[C@H](C)NC(=O)[C@H](Cc2c[nH]c3ccccc23)NC(=O)[C@H](Cc2c[nH]c3ccccc23)NC(=O)[C@H](Cc2c[nH]c3ccccc23)NC(=O)[C@H](Cc2c[nH]c3ccccc23)NC1=O [IFX-045] (cyclo(AARRRRAAWWWW)) | 25 (≈ 15.1 µM) | 25 (≈ 15.1 µM) | 50 (≈ 30.2 µM) | 50 (≈ 30.2 µM) | 390
5 | N=C(N)NCCC[C@@H]1NC(=O)[C@H](CCCNC(=N)N)NC(=O)[C@H](Cc2ccc3ccccc3c2)NC(=O)[C@H](Cc2ccc3ccccc3c2)NC(=O)[C@H](Cc2ccc3ccccc3c2)NC(=O)[C@H](CCCNC(=N)N)NC1=O [IFX-003, c[Arg-Arg-Arg-NaI-NaI-NaI]] (cyclo([2Nal][2Nal][2Nal]RRR)) | 6.2 (≈ 5.85 µM) | 3.1 (≈ 2.92 µM) | 50 (≈ 47.2 µM) | 25 (≈ 23.6 µM) | 240
6 | N=C(N)NCCC[C@H](NC(=O)[C@H](CCCNC(=N)N)NC(=O)[C@H](Cc1ccc2ccccc2c1)NC(=O)[C@H](Cc1ccc2ccccc2c1)NC(=O)[C@H](CCCNC(=N)N)NC(=O)[C@@H](N)CCCNC(=N)N)C(=O)N[C@@H](Cc1ccc2ccccc2c1)C(=O)O [IFX-019-1, NH2-Arg-Arg-NaI-NaI-Arg-Arg-NaI-OH] (H-RR[2Nal][2Nal]RR[2Nal]-OH) | 25 (≈ 20.3 µM) | 12.5 (≈ 10.1 µM) | 25 (≈ 20.3 µM) | 25 (≈ 20.3 µM) | 395
7 | N=C(N)NCCC[C@@H]1NC(=O)[C@H](CCN)NC(=O)[C@@H](Cc2ccc3ccccc3c2)NC(=O)[C@@H](Cc2ccc3ccccc3c2)NC(=O)[C@H](Cc2c[nH]c3ccccc23)NC(=O)[C@H](CCN)NC(=O)[C@@H](CCCNC(=N)N)NC(=O)[C@H](CCCNC(=N)N)NC(=O)[C@@H](CCCNC(=N)N)NC1=O [IFX-057, c[Dab-Arg-arg-Arg-arg-Dab-Trp-naI-naI]] (cyclo([Dab]R[dR]R[dR][Dab]W[d2Nal][d2Nal])) | 32 (≈ 22.8 µM) | 16 (≈ 11.4 µM) | 32 (≈ 22.8 µM) | 32 (≈ 22.8 µM) | 520
8 | N=C(N)NCCC[C@H](NC(=O)[C@H](CCCNC(=N)N)NC(=O)[C@@H](NC(=O)[C@@H](NC(=O)[C@H](CCCNC(=N)N)NC(=O)[C@@H](N)CCCNC(=N)N)C(c1ccccc1)c1ccccc1)C(c1ccccc1)c1ccccc1)C(=O)N[C@H](C(=O)O)C(c1ccccc1)c1ccccc1 [IFX-017-1, NH2-Arg-Arg-Dip-Dip-Arg-Arg-Dip-OH] (H-RR[Dip][Dip]RR[Dip]-OH) | 12.5 (≈ 9.52 µM) | 12.5 (≈ 9.52 µM) | 25 (≈ 19 µM) | 25 (≈ 19 µM) | 370
